Measured values: ChEMBL document CHEMBL1151667, “Chlorochimaphilin: a new antibiotic from Moneses uniflora” (1996)
Values after ≈ are worked out from the molar mass of the structure shown. Active and inactive are the calls of the source. No cut-off for these calls is given here.

Tests used:
Candida albicans [1] = assay: Antimicrobial activity against Candida albicans after 48 hrs by twofold serial microbroth dilution assay; type: functional
Candida albicans [2] = assay: Antimicrobial activity against Candida albicans CAND105 after 48 hrs by twofold serial microbroth dilution assay; type: functional
Escherichia coli [3] = assay: Antimicrobial activity against Escherichia coli DC2 after 24 hrs by twofold serial microbroth dilution assay; type: functional
Escherichia coli [4] = assay: Antimicrobial activity against Escherichia coli UB1005 after 24 hrs by twofold serial microbroth dilution assay; conditions: UB1005, 24 h
Yarrowia lipolytica = assay: Antimicrobial activity against Candida lipolytica after 48 hrs by twofold serial microbroth dilution assay; type: functional
Fusarium tricinctum = assay: Antimicrobial activity against Fusarium tricinctum after 48 hrs by twofold serial microbroth dilution assay; type: functional
Pseudomonas aeruginosa [5] = assay: Antimicrobial activity against Pseudomonas aeruginosa K799 after 24 hrs by twofold serial microbroth dilution assay; type: functional
Human alphaherpesvirus 1 = assay: Antiviral activity against Herpes simplex virus 1 assessed as effect on virus-induced cytopathic effect at 200 ug/ml after 3 days; type: functional, organism-based
Pseudomonas aeruginosa [6] = assay: Antimicrobial activity against Pseudomonas aeruginosa Z61 after 24 hrs by twofold serial microbroth dilution assay; type: functional
[7] = tested on: Mycobacterium tuberculosis; assay: Antimicrobial activity against Mycobacterium tuberculosis 107 ATCC 35801 at 100 ug/disk after 4 weeks by disk diffusion method; type: functional, organism-based
Mycobacterium avium = assay: Antimicrobial activity against Mycobacterium avium 724 ATCC 25291 at 100 ug/disk after 2 weeks by disk diffusion method; type: functional, organism-based
Aspergillus fumigatus = assay: Antimicrobial activity against Aspergillus fumigatus after 48 hrs by twofold serial microbroth dilution assay; type: functional
[8] = tested on: Respiratory syncytial virus; assay: Antiviral activity against Respiratory syncytial virus assessed as effect on virus-induced cytopathic effect at 200 ug/ml after 3 days; type: functional, organism-based
Saccharomyces cerevisiae = assay: Antimicrobial activity against Saccharomyces cerevisiae after 48 hrs by twofold serial microbroth dilution assay; type: functional
Staphylococcus aureus [9] = assay: Antimicrobial activity against Staphylococcus aureus RN4220 after 24 hrs by twofold serial microbroth dilution assay; type: functional
Aspergillus flavus = assay: Antimicrobial activity against Aspergillus flavus after 48 hrs by twofold serial microbroth dilution assay; type: functional
Bacillus subtilis [10] = assay: Antimicrobial activity against Bacillus subtilis Vernon after 24 hrs by twofold serial microbroth dilution assay; type: functional
Nannizzia gypsea = assay: Antimicrobial activity against Microsporum gypseum after 48 hrs by twofold serial microbroth dilution assay; type: functional
Staphylococcus aureus [11] = assay: Antimicrobial activity against Staphylococcus aureus SAP00017 after 24 hrs by twofold serial microbroth dilution assay; type: functional
Pseudomonas aeruginosa [12] = assay: Antimicrobial activity against Pseudomonas aeruginosa K799 at <=800 ug/ml after 24 hrs by twofold serial microbroth dilution assay; type: functional, organism-based
Escherichia coli [13] = assay: Antimicrobial activity against Escherichia coli UB1005 at <=800 ug/ml after 24 hrs by twofold serial microbroth dilution assay; type: functional, organism-based
Bacillus subtilis [14] = assay: Antimicrobial activity against Bacillus subtilis Vernon at <=800 ug/ml after 24 hrs by twofold serial microbroth dilution assay; type: functional, organism-based
Staphylococcus aureus [15] = assay: Antimicrobial activity against Staphylococcus aureus RN4220 at <=800 ug/ml after 24 hrs by twofold serial microbroth dilution assay; type: functional, organism-based
Staphylococcus aureus [16] = assay: Antimicrobial activity against Staphylococcus aureus SAP00017 at <=800 ug/ml after 24 hrs by twofold serial microbroth dilution assay; type: functional, organism-based
Candida albicans [17] = assay: Antimicrobial activity against Candida albicans CAND105 at <=800 ug/ml after 48 hrs by twofold serial microbroth dilution assay; type: functional, organism-based
Pseudomonas aeruginosa [18] = assay: Antimicrobial activity against Pseudomonas aeruginosa Z61 at <=800 ug/ml after 24 hrs by twofold serial microbroth dilution assay; type: functional, organism-based
Escherichia coli [19] = assay: Antimicrobial activity against Escherichia coli DC2 at <=800 ug/ml after 24 hrs by twofold serial microbroth dilution assay; type: functional, organism-based

| Compound | MIC (Candida albicans [1]) | MIC (Candida albicans [2]) | MIC (Escherichia coli [3]) | MIC (Escherichia coli [4]) | MIC (Yarrowia lipolytica) | MIC (Fusarium tricinctum) | MIC (Pseudomonas aeruginosa [5]) | MIC (Pseudomonas aeruginosa [6]) | MIC (Aspergillus fumigatus) | MIC (Saccharomyces cerevisiae) | MIC (Staphylococcus aureus [9]; RN4220, 24 h) | MIC (Aspergillus flavus) | MIC (Bacillus subtilis [10]) | MIC (Nannizzia gypsea) | MIC (Staphylococcus aureus [11]) | Activity (Pseudomonas aeruginosa [12]) | Activity (Escherichia coli [13]) | Activity (Bacillus subtilis [14]) | Activity (Staphylococcus aureus [15]) | Activity (Staphylococcus aureus [16]) | other results |
| --- | --- | --- | --- | --- | --- | --- | --- | --- | --- | --- | --- | --- | --- | --- | --- | --- | --- | --- | --- | --- | --- |
| CC1=CC(=O)c2ccc(C)c(Cl)c2C1=O | 100 µg/mL (≈ 453 µM) | 50 µg/mL (≈ 227 µM) | 800 µg/mL (≈ 3630 µM) | > 800 µg/mL | 50 µg/mL (≈ 227 µM) | 12.5 µg/mL (≈ 56.6 µM) | > 800 µg/mL | 400 µg/mL (≈ 1810 µM) | 25 µg/mL (≈ 113 µM) | 100 µg/mL (≈ 453 µM) | 200 µg/mL (≈ 906 µM) | 25 µg/mL (≈ 113 µM) | 12.5 µg/mL (≈ 56.6 µM) | 3.1 µg/mL (≈ 14 µM) | 25 µg/mL (≈ 113 µM) | – | – | – | – | – | Activity (Human alphaherpesvirus 1): inactive; Activity [7]: inactive; Activity (Mycobacterium avium): inactive; Activity [8]: inactive |
| NYSTATIN | 10 µg/mL | – | – | – | > 10 µg/mL | 5 µg/mL | – | – | 5 µg/mL | 10 µg/mL | – | > 10 µg/mL | – | 2.5 µg/mL | – | – | – | – | – | – | – |
| CC1=CC(=O)c2ccc(C)cc2C1=O [CHIMAPHILIN] | 50 µg/mL (≈ 269 µM) | 400 µg/mL (≈ 2150 µM) | > 800 µg/mL | > 800 µg/mL | 50 µg/mL (≈ 269 µM) | 12.5 µg/mL (≈ 67.1 µM) | > 800 µg/mL | > 800 µg/mL | 50 µg/mL (≈ 269 µM) | 50 µg/mL (≈ 269 µM) | 25 µg/mL (≈ 134 µM) | 25 µg/mL (≈ 134 µM) | 50 µg/mL (≈ 269 µM) | 6.2 µg/mL (≈ 33.3 µM) | 25 µg/mL (≈ 134 µM) | – | – | – | – | – | Activity (Human alphaherpesvirus 1): inactive; Activity [7]: inactive; Activity (Mycobacterium avium): inactive; Activity [8]: inactive |
| Cc1ccc2c(O[C@@H]3O[C@@H](C)[C@H](O)[C@@H](O)[C@H]3O)c(O)c(C)c(O)c2c1 | – | – | – | – | – | – | – | – | – | – | – | – | – | – | – | inactive | inactive | inactive | inactive | inactive | Activity (Candida albicans [17]): inactive; Activity (Pseudomonas aeruginosa [18]): inactive; Activity (Escherichia coli [19]): inactive |
| COc1ccc2c(O)cc(OC)c(O)c2c1O | – | – | – | – | – | – | – | – | – | – | – | – | – | – | – | inactive | inactive | inactive | inactive | inactive | Activity (Candida albicans [17]): inactive; Activity (Pseudomonas aeruginosa [18]): inactive; Activity (Escherichia coli [19]): inactive |
| COc1cccc(OC)c1C(=O)N[C@@H]1C(=O)N2[C@@H]1SC(C)(C)[C@@H]2C(=O)O [METHICILLIN] | – | > 512 µg/mL | < 4 µg/mL | > 512 µg/mL | – | – | 256 µg/mL (≈ 673 µM) | < 4 µg/mL | – | – | < 4 µg/mL | – | 128 µg/mL (≈ 336 µM) | – | 256 µg/mL (≈ 673 µM) | – | – | – | – | – | – |
| GENTAMICIN | – | > 32 µg/mL | 1 µg/mL | – | – | – | 1 µg/mL | 0.3 µg/mL | – | – | – | – | 16 µg/mL | – | > 32 µg/mL | – | – | – | – | – | MIC (Staphylococcus aureus [9]): 0.3 µg/mL |
| CC1=C(O)C(=O)c2ccc(C)cc2C1=O | 50 µg/mL (≈ 247 µM) | 80 µg/mL (≈ 396 µM) | > 800 µg/mL | > 800 µg/mL | 25 µg/mL (≈ 124 µM) | 25 µg/mL (≈ 124 µM) | > 800 µg/mL | > 800 µg/mL | 50 µg/mL (≈ 247 µM) | > 100 µg/mL | 400 µg/mL (≈ 1980 µM) | 100 µg/mL (≈ 495 µM) | 800 µg/mL (≈ 3960 µM) | 12.5 µg/mL (≈ 61.8 µM) | 800 µg/mL (≈ 3960 µM) | – | – | – | – | – | Activity (Human alphaherpesvirus 1): inactive; Activity [7]: inactive; Activity (Mycobacterium avium): inactive; Activity [8]: inactive |
| CC(=O)Oc1c(C)c(OC(C)=O)c2cc(C)ccc2c1O[C@@H]1O[C@@H](C)[C@H](OC(C)=O)[C@@H](OC(C)=O)[C@H]1OC(C)=O | – | – | – | – | – | – | – | – | – | – | – | – | – | – | – | inactive | inactive | inactive | inactive | inactive | Activity (Candida albicans [17]): inactive; Activity (Pseudomonas aeruginosa [18]): inactive; Activity (Escherichia coli [19]): inactive |
| COc1ccc2c(OC(C)=O)cc(OC)c(OC(C)=O)c2c1OC(C)=O | – | – | – | – | – | – | – | – | – | – | – | – | – | – | – | inactive | inactive | inactive | inactive | inactive | Activity (Candida albicans [17]): inactive; Activity (Pseudomonas aeruginosa [18]): inactive; Activity (Escherichia coli [19]): inactive |
| C[C@@H]1[C@H](O)[C@@H](C)/C=C/C=C/C=C/C=C/C=C/C=C/C=C/[C@H](O[C@@H]2O[C@H](C)[C@@H](O)[C@H](N)[C@@H]2O)C[C@@H]2O[C@](O)(C[C@@H](O)C[C@@H](O)[C@H](O)CC[C@@H](O)C[C@@H](O)CC(=O)O[C@H]1C)C[C@H](O)[C@H]2C(=O)O [AMPHOTERICIN B] | – | 0.1 µg/mL (≈ 0.108 µM) | > 5 µg/mL | > 5 µg/mL | – | – | > 5 µg/mL | > 5 µg/mL | – | – | > 5 µg/mL | – | > 5 µg/mL | – | > 5 µg/mL | – | – | – | – | – | – |
